Counter-ions that a name gives are not always drawn.
Columns and labels:
[1] = system: MNK1 (WT); assay: Cell proliferation inhibition assay (CellTiter-Glo 3D), MNK1; format: cell-based, human; conditions: Homo sapiens, 168 h, MNK1 (WT) cells, 7 days
Method: (§1) Positive control: MRTX1133
(§2) • (a) The cells were thawed in T75 cell culture flasks: • (b) When 80%-90% cell confluence was achieved, the cells were passaged.
(§3) The diluted test compound was added to a 384-well cell culture plate using a nanoliter pipetting system, and replicate wells were set. An equal volume of medium was added to the positive control group; an equal volume of DMSO was added to the negative control group. The plate was centrifuged at 1000 rpm at room temperature for 1 min.
(§4) The cells were seeded into a) 384-well culture plate. An equal volume of cells was added to the negative control group, and only an equal volume of medium was added to the positive control group. The plate was centrifuged at 1000 rpm at room temperature for 1 min. The final DMSO concentration in the final compound was 0.5%. The plate was incubated in a thermostatic incubator at 37° C. with 5% CO2 for 7 days.
(§5) CellTiter-Glo® 3D was added to b) 384-well cell culture plate at 20 μL/well. The plate was shaken at 320 rpm in the dark for 20 min, and incubated at room temperature in the dark for 2 h. The luminescence values were read using an Envision multi-mode microplate reader.
(§6) The inhibition rates (IRs) of the test compounds were calculated according to the following formula: IR (%)=(1−(RLU compound−RLU blank control)/(RLU vehicle control−RLU blank control))×100%. The inhibition rates of the compounds at different concentrations were calculated in Excel, and then inhibition curves were plotted and relevant parameters including minimum inhibition rate, maximum inhibition rate and IC50 were calculated using GraphPad Prism software.

[2] = system: SW480 (G12V); assay: KRAS mutant cell proliferation inhibition assay (CellTiter-Glo 3D), SW480; format: cell-based; conditions: Homo sapiens, 168 h, SW480 (G12V) cells, 7 days
Method: as §1, §2, §3, §4, §5, §6

[3] = system: AsPC-1 (G12D); assay: KRAS mutant cell proliferation inhibition assay (CellTiter-Glo 3D), AsPC-1; format: cell-based, human; conditions: Homo sapiens, ASPC1, 168 h, AsPC-1 (G12D) cells, 7 days
Method: as §1, §2, §3, §4, §5, §6

[4] = system: PSN-1 (G12R); assay: KRAS mutant cell proliferation inhibition assay (CellTiter-Glo 3D), PSN-1; format: cell-based; conditions: Homo sapiens, PSN1, 168 h, PSN-1 (G12R) cells, 7 days
Method: as §1, §2, §3, §4, §5, §6

[5] = system: H727 (G12V); assay: KRAS mutant cell proliferation inhibition assay (CellTiter-Glo 3D), H727; format: cell-based, human; conditions: Homo sapiens, NCI-H727, 168 h, H727 (G12V) cells, 7 days
Method: as §1, §2, §3, §4, §5, §6

IC50 [2] [nM]	IC50 [3] [nM]	IC50 [5] [nM]	Structure (SMILES)	IC50 [1] [nM]	IC50 [4] [nM]
432	10.1	2270	C#Cc1c(F)ccc2cc(O)cc(-c3ncc4c(N5CC6CCC(C5)N6)nc(OC[C@@]56CCCN5C[C@H](F)C6)nc4c3F)c12 [MRTX1133, reference compound]	319	> 10000
–	26.9	127	CCc1c(F)ccc2cc(O)cc(N3CCc4c(nc(OCC56CCCN5C[C@@]5(C6)CC5(F)F)nc4N4CCCn5nc(C(=O)N(C)C)cc5C4)C3)c12 (stereo in doubt) [Example B-14, 5-(2-(((1R,7a′R)-2,2-Difluorodihydro-1′H,3′H-spiro[cyclopropane-1,2′-pyrrolizin]-7a′ (5′H)-yl)methoxy)-7-(8-ethyl-7-fluoro-3-hydroxynaphthalen-1-yl)-5,6,7,8-tetrahydropyrido[3,4-d]pyrimidin-4-yl)-N,N-dimethyl-5,6,7,8-tetrahydro-4H-pyrazolo[1,5-a][1,4]diazepine-2-carboxamide hydrochloride]	92.3	7560
–	293	604	CC1(O)COCCN(c2nc(OC[C@@]34CCCN3C[C@@]3(CC3(F)F)C4)nc3c(F)c(-c4cc(N)cc(Cl)c4C(F)(F)F)ncc23)C1 (stereo partly drawn) [Example A-39, 4-(7-(5-Amino-3-chloro-2-(trifluoromethyl)phenyl)-2-(((1S,7a'S)-2,2-difluorodihydro-1′H,3′H-spiro[cyclopropane-1,2′-pyrrolizin]-7a′ (5′H)-yl)methoxy)-8-fluoropyrido[4,3-d]pyrimidin-4-yl)-6-methyl-1.4-oxazenan-6-ol]	273	> 10000
–	> 1000	7370	CCc1c(F)ccc2cc(O)cc(-c3ncc4c(N5CCC[C@@]6(C5)NC(=O)NC6=O)nc(OC[C@@]56CCCN5C[C@@]5(CC5(F)F)C6)nc4c3F)c12 [Example A-26, (S)-7-(2-(((1S,7a'S)-2,2-Difluorodihydro-1′H,3′H-spiro[cyclopropane-1,2′-pyrrolizin]-7a′ (5′H)-yl)methoxy)-7-(8-ethyl-7-fluoro-3-hydroxynaphthalen-1-yl)-8-fluoropyrido[4,3-d]pyrimidin-4-yl)-1,3,7-triazaspiro[4.5]decane-2,4-dione]	1620	> 10000
–	61.1	242	Nc1cc(Cl)c(C(F)(F)F)c(-c2ncc3c(N4CCCC5(CCO5)C4)nc(OC[C@@]45CCCN4C[C@@]4(CC4(F)F)C5)nc3c2F)c1 (stereo partly drawn) [Example A-14, 3-Chloro-5-(2-(((1S,7a'S)-2,2-difluorodihydro-1′H,3′H-spiro[cyclopropane-1,2′-pyrrolizin]-7a′ (5′H)-yl)methoxy)-8-fluoro-4-(1-oxa-6-azaspiro[3.5]nonan-6-yl)pyrido[4,3-d]pyrimidin-7-yl)-4-(trifluoromethyl)aniline]	133	> 10000
–	23.2	35.9	CCc1c(F)ccc2cc(O)cc(-c3ncc4c(N5CCC[C@]6(C5)NC(=O)NC6=O)nc(OC[C@@]56CCCN5C[C@@]5(CC5(F)F)C6)nc4c3F)c12 [Example A-27, (R)-7-(2-(((1S,7a'S)-2,2-Difluorodihydro-1′H,3′H-spiro[cyclopropane-1,2′-pyrrolizin]-7a′ (5′H)-yl)methoxy)-7-(8-ethyl-7-fluoro-3-hydroxynaphthalen-1-yl)-8-fluoropyrido[4,3-d]pyrimidin-4-yl)-1,3,7-triazaspiro[4.5]decane-2,4-dione]	5.35	79.7
68.2	11.4	45.1	CCc1c(F)ccc2cc(O)cc(-c3ncc4c(N5CCCC6(CCO6)C5)nc(OC[C@@]56CCCN5C[C@@]5(CC5(F)F)C6)nc4c3F)c12 (stereo partly drawn) [Example A-16, 4-(2-(((1S,7a'S)-2,2-Difluorodihydro-1′H,3′H-spiro[cyclopropane-1,2′-pyrrolizin]-7a′ (5′H)-yl)methoxy)-8-fluoro-4-(1-oxa-6-azaspiro[3.5]nonan-6-yl)pyrido[4,3-d]pyrimidin-7-yl)-5-ethyl-6-fluoronaphthalen-2-ol]	22.7	1000

From patent publication US20260015363A1, “SUBSTITUTED PYRIMIDINE-FUSED RING INHIBITOR, METHOD FOR PREPARING SAME, AND USE THEREOF” (Suzhou Zelgen Biopharmaceuticals Co., Ltd., priority 2022, published 2026)
